In patent US20230117592A1 (SRI International, priority 2019, published 2023) one finds IC50 data, which are given here for 24 compounds.

Broadly, the IC50 is the concentration that inhibits the measured activity by half.

In one assay the target is T1, 5-LOX (Homo sapiens, UniProt P09917).
T1 sequence (P09917 1-674): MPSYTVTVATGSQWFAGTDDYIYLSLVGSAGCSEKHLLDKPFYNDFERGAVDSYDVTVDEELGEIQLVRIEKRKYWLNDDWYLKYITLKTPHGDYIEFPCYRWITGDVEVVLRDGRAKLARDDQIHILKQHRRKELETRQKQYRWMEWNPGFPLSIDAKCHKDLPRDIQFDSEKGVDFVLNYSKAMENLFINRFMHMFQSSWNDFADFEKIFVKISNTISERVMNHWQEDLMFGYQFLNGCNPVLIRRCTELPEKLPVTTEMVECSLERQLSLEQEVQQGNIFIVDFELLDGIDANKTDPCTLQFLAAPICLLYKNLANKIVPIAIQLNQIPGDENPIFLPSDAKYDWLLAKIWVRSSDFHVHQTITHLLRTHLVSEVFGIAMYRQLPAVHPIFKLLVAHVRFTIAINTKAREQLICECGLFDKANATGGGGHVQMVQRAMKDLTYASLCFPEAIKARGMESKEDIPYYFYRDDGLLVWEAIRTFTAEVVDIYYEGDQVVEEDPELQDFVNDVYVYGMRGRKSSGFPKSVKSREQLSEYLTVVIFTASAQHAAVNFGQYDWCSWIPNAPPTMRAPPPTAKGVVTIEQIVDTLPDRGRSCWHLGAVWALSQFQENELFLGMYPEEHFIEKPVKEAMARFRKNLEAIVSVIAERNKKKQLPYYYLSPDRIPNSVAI
In words: 5-LOX fluorescent assay (in vitro lipoxygenase inhibition). Type of assay: biochemical. The note with it: recombinant 5-LOX cell lysate, 20 μM AA, DHR123 fluorescence; several values in a cell = repeat determinations; read-out: IC50 (μM) values for in vitro lipoxygenase inhibition, 5-LOX. The procedure: 5-LOX FI assay Fluorescent Assay
The enzyme assay (100 μL) contained 50 mM Tris, pH 7.5, 0.1 mM EDTA, 0.3 mM CaCl2, 20 μM AA, 100 μM ATP, 1 μM DHR123, and recombinant 5-LOX cell lysate (0.5 μL/100 μL). Inhibitors (dissolved in DMSO) were plated at 1 μL into 96-well assay microplates followed by a 40 μL addition of a solution containing 5-LOX enzyme. Enzyme was pre-incubated with compounds for 15 mins. The assay was initiated by the addition of a 40 μL substrate solution containing AA and ATP, and 20 μL addition of a solution containing DHR123. […] Percent inhibition was calculated for each compound dose for IC50 curve fitting using 4 Parameter Logistic Model or Sigmoidal Dose-Response Model.

Another assay has as its target T2, 12-LOX (Homo sapiens, UniProt P18054).
T2 sequence (P18054 1-663): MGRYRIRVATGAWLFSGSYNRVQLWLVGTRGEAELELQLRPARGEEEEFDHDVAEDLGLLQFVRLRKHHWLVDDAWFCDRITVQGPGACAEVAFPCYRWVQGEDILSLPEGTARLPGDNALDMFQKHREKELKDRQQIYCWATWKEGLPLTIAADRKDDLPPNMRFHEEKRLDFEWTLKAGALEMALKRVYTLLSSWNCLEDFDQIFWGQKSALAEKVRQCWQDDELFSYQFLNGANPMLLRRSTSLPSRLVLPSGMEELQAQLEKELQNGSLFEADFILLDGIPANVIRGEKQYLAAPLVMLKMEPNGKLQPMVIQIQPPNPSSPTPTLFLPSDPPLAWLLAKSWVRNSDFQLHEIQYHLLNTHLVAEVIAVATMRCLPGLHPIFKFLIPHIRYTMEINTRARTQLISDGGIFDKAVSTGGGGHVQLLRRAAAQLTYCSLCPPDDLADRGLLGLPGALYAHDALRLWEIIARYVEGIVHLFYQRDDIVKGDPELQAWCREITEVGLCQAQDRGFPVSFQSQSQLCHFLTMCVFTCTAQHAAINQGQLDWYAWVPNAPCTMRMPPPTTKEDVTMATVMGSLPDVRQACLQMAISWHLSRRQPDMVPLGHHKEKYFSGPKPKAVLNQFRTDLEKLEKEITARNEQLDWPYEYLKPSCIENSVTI
In words: 12-LOX fluorescent assay (in vitro lipoxygenase inhibition). Type of assay: biochemical. The procedure: 12-LOX/15-LOX Fluorescent Assay
The enzyme assay (100 ul) contained 50 mM Tris, pH 7.5, 0.05% Tween-20, 20 μM AA/LA, 1 μM DHR123, and 100 nM recombinant 12-LOX enzyme/50 nM recombinant 15-LOX enzyme. Inhibitors (dissolved in DMSO) were plated at 1 μL into 96-well assay microplates followed by a 40 μL addition of a solution containing 12-LOX/15-LOX enzyme. Enzyme was pre-incubated with compounds for 15 mins. The assay was initiated by the addition of a 40 μL substrate solution containing AA/LA, and 20μL addition of a solution containing DHR123. […] Percent inhibition was calculated for each compound dose for IC50 curve fitting using 4 Parameter Logistic Model or Sigmoidal Dose-Response Model.

Where [1] appears, read: 100 nM recombinant 12-LOX, 20 μM AA, DHR123 fluorescence, several values in a cell = repeat determinations, read-out: IC50 (μM) values for in vitro lipoxygenase inhibition, 12-LOX.

Each structure is given as a SMILES string. Where “and” joins values, the source holds several entries; their conditions need not be identical. Equal entries are not always repeated. Where two headings read alike, the source gives them in different places.

Regarding `Fc1ccc(Nc2ccc(NCC3(CN4CCOCC4)COC3)c(C(F)(F)F)c2)cc1`, the IC50 was found to be 0.06 µM on 5-LOX and 0.04 µM at 12-LOX (setting [1]).

For the compound `COc1ccc(CNc2cccc(N)c2OCCN(C)C)cc1` [SS20308-0025-01, 2-(2-(dimethylamino)ethoxy)-N^1-(4-methoxybenzyl)benzene-1,3-diamine], the IC50 came out at 7.31 µM on 5-LOX and 1.29 µM at 12-LOX (setting [1]).

For the compound `CCOC(=O)c1ccc(Nc2ccccc2OCCn2cncn2)cc1` [SS20308-0033-01, ethyl 4-(2-(2-(1H-1,2,4-triazol-1-yl)ethoxy)phenylamino)benzoate], the values for the IC50 at 5-LOX and on 12-LOX (setting [1]) were 50.3 µM and 23.9 µM, respectively.

As to `COc1ccc(CNc2cccc(Nc3ccccc3)c2OCCN(C)C)cc1` [SS20308-0052-01, 2-(2-(dimethylamino)ethoxy)-N^1-(4-methoxybenzyl)-N^3-phenylbenzene-1,3-diamine], the IC50 is 1.32 µM on 5-LOX and 0.62 µM at 12-LOX (setting [1]).

As to `COc1ccc(CNc2ccc3c(-c4ccccc4)cc(=O)[nH]c3c2OCCN(C)C)cc1` [SS20308-0053-01, 8-(2-(dimethylamino)ethoxy)-7-((4-methoxybenzyl)amino)-4-phenylquinolin-2(1H)-one], the IC50 at 5-LOX is 3.36 µM; at 12-LOX (setting [1]), 5.2 µM.

On to `CCOC(=O)c1ccc(Nc2cccc(Nc3ccccc3)c2OCCn2cncn2)cc1` [SS20308-0055-01, ethyl 4-(2-(2-(1H-1,2,4-triazol-1-yl)ethoxy)-3-(phenylamino)phenylamino)benzoate], for which the IC50 at 5-LOX was 3.33 µM; on 12-LOX (setting [1]), 1.64 µM.

On to `CN(C)CCOc1c(NCc2ccccc2)cccc1Nc1ncccc1Cl` [SS20308-0071-01, N^1-benzyl-N^3-(3-chloropyridin-2-yl)-2-(2-(dimethylamino)ethoxy)benzene-1,3-diamine], for which the IC50 on 5-LOX came to 5.73 µM; at 12-LOX (setting [1]) it was 4.9 µM.

On to `CN(C)CCOc1c(Nc2ccccc2)ccc2c(-c3ccccc3)cc(=O)[nH]c12` [SS20308-0072-01, 8-(2-(dimethylamino)ethoxy)-4-phenyl-7-(phenylamino)quinolin-2(1H)-one], for which the figures for the IC50 on 5-LOX and at 12-LOX (setting [1]) were 7.23 µM and 3.37 µM, respectively.

For `c1ccc(Nc2ccc(-c3ccccc3)c(NCCn3cncn3)c2)cc1` [SS20308-0095-01, N^2-(2-(1H-1,2,4-triazol-1-yl)ethyl)-N^4-phenylbiphenyl-2,4-diamine], the IC50 at 5-LOX was 0.35 µM; against 12-LOX, 0.18 µM.

For the compound `c1ccc(CNc2ccc(-c3ccccc3)c(NCCn3cncn3)c2)cc1` [SS20308-0096-01, N^2-(2-(1H-1,2,4-triazol-1-yl)ethyl)-N^4-benzyl-[1,1′-biphenyl]-2,4-diamine], the IC50 on 5-LOX came out at 0.55 µM; on 12-LOX (setting [1]) it was 0.24 µM.

On to `CN(C)CCNc1cc(Nc2ccccc2)ccc1-c1ccccc1` [SS20308-0130-01, N2-(2-(dimethylamino)ethyl)-N4-phenyl-[1,1′-biphenyl]-2,4-diamine], for which the IC50 at 5-LOX was determined as 0.24 µM; on 12-LOX (setting [1]), 0.25 µM.

`CN(CCn1cncn1)c1cc(Nc2ccccc2)ccc1-c1ccccc1` [SS20308-0131-01, N2-(2-(1H-1,2,4-triazol-1-yl)ethyl)-N2-methyl-N4-phenyl-[1,1′-biphenyl]-2,4-diamine]: the IC50 at 5-LOX was 0.25 µM.

As for `c1ccc(Nc2ccc(-c3ccccc3)c(OCCn3cncn3)c2)cc1` [SS20308-0132-01, 2-(2-(1H-1,2,4-triazol-1-yl)ethoxy)-N-phenyl-[1,1′-biphenyl]-4-amine], the IC50 amounted to 0.6 µM on 5-LOX and 0.49 µM against 12-LOX.

With `Cc1cccc(C)c1-c1ccc(Nc2ccccc2)cc1NCCn1cncn1` [SS20308-0133-01, N2-(2-(1H-1,2,4-triazol-1-yl)ethyl)-2′,6′-dimethyl-N4-phenyl-[1,1′-biphenyl]-2,4-diamine], the IC50 on 5-LOX worked out at 0.22 µM; on 12-LOX (setting [1]), 0.14 µM.

Turning to `O=C(CCn1cncn1)Nc1cc(Nc2ccccc2)ccc1-c1ccccc1` [SS20308-0134-01, N-(4-(phenylamino)-[1,1′-biphenyl]-2-yl)-3-(1H-1,2,4-triazol-1-yl)propanamide], the IC50 at 5-LOX stood at 2.32 µM; at 12-LOX (setting [1]), 1.49 µM.

For `O=C(Nc1ccc(-c2ccccc2)c(NCCn2cncn2)c1)c1ccccc1` [SS20308-0135-01, N-(2-((2-(1H-1,2,4-triazol-1-yl)ethyl)amino)-[1,1′-biphenyl]-4-yl)benzamide], the IC50 at 5-LOX was 25.7 µM; on 12-LOX (setting [1]), 20.8 µM.

`Fc1ccc(Nc2ccc(-c3ccccc3)c(NCCn3cncn3)c2)cc1` [SS20308-0142-01, N^2-(2-(1H-1,2,4-triazol-1-yl)ethyl)-N^4-(4-fluorophenyl)biphenyl-2,4-diamine]: the IC50 on 5-LOX was 0.18 µM and 0.34 µM; on 12-LOX (setting [1]), 0.09 µM and 0.17 µM.

For `OCc1ccccc1-c1ccc(Nc2ccccc2)cc1NCCn1cncn1` [SS20308-0143-01, (2′-(2-(1H-1,2,4-triazol-1-yl)ethylamino)-4′-(phenylamino)biphenyl-2-yl)methanol], the IC50 came to 0.94 µM on 5-LOX and 0.33 µM at 12-LOX (setting [1]).

Take `COc1ccccc1-c1ccc(Nc2ccccc2)cc1NCCn1cncn1` [SS20308-0144-01, N^2-(2-(1H-1,2,4-triazol-1-yl)ethyl)-2′-methoxy-N^4-phenylbiphenyl-2,4-diamine]: the IC50 was 0.4 µM on 5-LOX and 0.18 µM on 12-LOX (setting [1]).

In the case of `c1ccc(CNc2ccc(NCCn3cncn3)c(-c3ccccc3)c2)cc1` [SS20308-0145-01, N^2-(2-(1H-1,2,4-triazol-1-yl)ethyl)-N^5-benzyl-[1,1′-biphenyl]-2,5-diamine], the IC50 was 30 nM and 50 nM (2×) on 5-LOX; 0.02 µM at 12-LOX (setting [1]).

`O=C(Nc1ccc(NCCn2cncn2)c(-c2ccccc2)c1)c1ccccc1` [SS20308-0146-01, N-(6-((2-(1H-1,2,4-triazol-1-yl)ethyl)amino)-[1,1′-biphenyl]-3-yl)benzamide]: the IC50 at 5-LOX amounted to 3.77 µM; on 12-LOX (setting [1]) it was 4.02 µM.

Take `Clc1ccc(-c2ccc(Nc3ccccc3)cc2NCCn2cncn2)cc1` [SS20308-0147-01, N^2-(2-(1H-1,2,4-triazol-1-yl)ethyl)-4′-chloro-N^4-phenylbiphenyl-2,4-diamine]: the IC50 was determined as 0.17 µM on 5-LOX and 0.14 µM on 12-LOX (setting [1]).

As for `Fc1c(Nc2ccccc2)ccc(-c2ccccc2)c1NCCn1cncn1` [SS20308-0148-01, N^2-(2-(1H-1,2,4-triazol-1-yl)ethyl)-3-fluoro-N^4-phenylbiphenyl-2,4-diamine], the IC50 at 5-LOX is 3.77 µM and 0.76 µM.

On to `Cc1cc(Nc2ccc(F)cc2Cl)ccc1NCC1(CN2CCCC2)COC1` [SS20308-0310-01, N^4-(2-chloro-4-fluorophenyl)-2-methyl-N^1-((3-(pyrrolidin-1-ylmethyl)oxetan-3-yl)methyl)benzene-1,4-diamine], for which the IC50 at 5-LOX was 0.11 µM and 0.14 µM and 0.1 µM and 0.19 µM and 0.29 µM.
